According to patent publication US8710065B2, “Tricyclic inhibitors of kinases” (AbbVie Inc., priority 2011, dated 2014):

What follows are compounds tested against T1, GST-tagged-Wee1 kinase (Homo sapiens, UniProt P30291) (assay: Wee1 time-resolved fluorescence equilibrium binding assay (displacement of Oregon Green-labeled ATP-competitive kinase probe)). Conditions: read-out: Wee-1 inhibition (Ki).
T1 construct: purchased Carnabio (Carna Biosciences) 05-177
T1 sequence (P30291 whole entry): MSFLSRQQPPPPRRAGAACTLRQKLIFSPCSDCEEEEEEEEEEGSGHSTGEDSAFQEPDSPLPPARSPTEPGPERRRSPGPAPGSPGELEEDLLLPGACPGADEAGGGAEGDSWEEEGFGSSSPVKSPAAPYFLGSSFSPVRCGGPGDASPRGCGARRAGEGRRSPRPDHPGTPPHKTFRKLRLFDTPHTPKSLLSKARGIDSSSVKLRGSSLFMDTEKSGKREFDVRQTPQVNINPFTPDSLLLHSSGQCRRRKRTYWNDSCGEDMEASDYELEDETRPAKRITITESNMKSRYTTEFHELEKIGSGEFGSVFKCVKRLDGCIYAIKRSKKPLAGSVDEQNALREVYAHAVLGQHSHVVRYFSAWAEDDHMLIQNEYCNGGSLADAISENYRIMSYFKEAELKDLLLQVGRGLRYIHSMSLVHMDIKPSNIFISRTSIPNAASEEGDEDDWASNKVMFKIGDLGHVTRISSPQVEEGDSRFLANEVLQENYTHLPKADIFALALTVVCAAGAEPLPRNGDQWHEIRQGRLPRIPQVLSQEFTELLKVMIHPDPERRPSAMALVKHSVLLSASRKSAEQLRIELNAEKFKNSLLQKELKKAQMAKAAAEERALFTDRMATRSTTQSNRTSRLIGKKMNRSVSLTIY
Procedure, shortened: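 Time-resolved fluorescence equilibrium binding with GST-Wee1, measuring displacement of a rapidly reversible Oregon Green-labelled ATP-competitive probe by competitive inhibitors; values reported as Ki.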
CN1Cc2cc(Nc3ncc4c(=O)n(-c5c(F)cccc5Cl)c5nccn5c4n3)ccc2C(C)(C)C1 [Example 97, 6-(2-chloro-6-fluorophenyl)-2-[(2,4,4-trimethyl-1,2,3,4-tetrahydroisoquinolin-7-yl)amino]imidazo[1,2-a]pyrimido[5,4-e]pyrimidin-5(6H)-one] gave a Ki of under 10 nM.
Compound CN1CCN(c2ccc(Nc3ncc4c(=O)n(-c5c(F)cccc5F)c5nccn5c4n3)cc2)CC1 [Example 98, 6-(2,6-difluorophenyl)-2-{[4-(4-methylpiperazin-1-yl)phenyl]amino}imidazo[1,2-a]pyrimido[5,4-e]pyrimidin-5(6H)-one] has a Ki of 10 to 100 nM.
For O=c1c2cnc(Nc3ccc4c(c3)CN(CCO)CC4)nc2n2ccnc2n1-c1ccccc1Cl [Example 99, 6-(2-chlorophenyl)-2-{[2-(2-hydroxyethyl)-1,2,3,4-tetrahydroisoquinolin-7-yl]amino}imidazo[1,2-a]pyrimido[5,4-e]pyrimidin-5(6H)-one], the Ki was under 10 nM.
In the case of CN1CCCN(c2ccc(Nc3ncc4c(=O)n(-c5ccccc5Cl)c5nccn5c4n3)cc2CO)CC1 [Example 100, 6-(2-chlorophenyl)-2-{[3-(hydroxymethyl)-4-(4-methyl-1,4-diazepan-1-yl)phenyl]amino}imidazo[1,2-a]pyrimido[5,4-e]pyrimidin-5(6H)-one], the Ki is reported as under 10 nM.
O=c1c2cnc(Nc3ccc(N4CCN5CCCC5C4)cc3)nc2n2ccnc2n1-c1ccccc1Cl (stereo not drawn) [Example 101, 6-(2-chlorophenyl)-2-{[4-(hexahydropyrrolo[1,2-a]pyrazin-2(1H)-yl)phenyl]amino}imidazo[1,2-a]pyrimido[5,4-e]pyrimidin-5(6H)-one] was tested, and the Ki was under 10 nM.
With Cc1cc(Nc2ncc3c(=O)n(-c4ccccc4Cl)c4nccn4c3n2)ccc1O [Example 102, 6-(2-chlorophenyl)-2-[(4-hydroxy-3-methylphenyl)amino]imidazo[1,2-a]pyrimido[5,4-e]pyrimidin-5(6H)-one] the Ki was under 10 nM.
For CCN(CC)CCCOc1ccc(Nc2ncc3c(=O)n(-c4ccccc4Cl)c4nccn4c3n2)cc1C [Example 103, 6-(2-chlorophenyl)-2-({4-[3-(diethylamino)propoxy]-3-methylphenyl}amino)imidazo[1,2-a]pyrimido[5,4-e]pyrimidin-5(6H)-one], the Ki was under 10 nM.
In the case of Cc1cc(Nc2ncc3c(=O)n(-c4ccccc4Cl)c4nccn4c3n2)ccc1N1CCNCC1 [Example 104, 6-(2-chlorophenyl)-2-{[3-methyl-4-(piperazin-1-yl)phenyl]amino}imidazo[1,2-a]pyrimido[5,4-e]pyrimidin-5(6H)-one], the Ki is reported as under 10 nM.
Cc1cc(Nc2ncc3c(=O)n(-c4ccccc4Cl)c4nccn4c3n2)ccc1N1CCCNCC1 [Example 105, 6-(2-chlorophenyl)-2-{[4-(1,4-diazepan-1-yl)-3-methylphenyl]amino}imidazo[1,2-a]pyrimido[5,4-e]pyrimidin-5(6H)-one] was tested, and the Ki was under 10 nM.
Compound O=c1c2cnc(Nc3ccc4c(c3)CCCNC4)nc2n2ccnc2n1-c1ccccc1Cl [Example 106, 6-(2-chlorophenyl)-2-(2,3,4,5-tetrahydro-1H-2-benzazepin-7-ylamino)imidazo[1,2-a]pyrimido[5,4-e]pyrimidin-5(6H)-one] has a Ki of under 10 nM.
For CN1CCc2ccc(Nc3ncc4c(=O)n(-c5ccccc5Cl)c5nccn5c4n3)cc2CC1 [Example 107, 6-(2-chlorophenyl)-2-[(3-methyl-2,3,4,5-tetrahydro-1H-3-benzazepin-7-yl)amino]imidazo[1,2-a]pyrimido[5,4-e]pyrimidin-5(6H)-one], the Ki was under 10 nM.
CN1CCc2ccc(Nc3ncc4c(=O)n(-c5ccccc5Cl)c5nccn5c4n3)cc2C1(C)C [Example 108, 6-(2-chlorophenyl)-2-[(1,1,2-trimethyl-1,2,3,4-tetrahydroisoquinolin-7-yl)amino]imidazo[1,2-a]pyrimido[5,4-e]pyrimidin-5(6H)-one] showed a Ki of under 10 nM.
For O=c1c2cnc(Nc3ccc4c(c3)CNCC43CC3)nc2n2ccnc2n1-c1c(Cl)cccc1Cl [Example 109, 6-(2,6-dichlorophenyl)-2-(2′,3′-dihydro-1′H-spiro[cyclopropane-1,4′-isoquinolin]-7′-ylamino)imidazo[1,2-a]pyrimido[5,4-e]pyrimidin-5(6H)-one], the Ki was under 10 nM.
Work on Cc1cc(Nc2ncc3c(=O)n(-c4c(Cl)cccc4Cl)c4nccn4c3n2)ccc1N1CCNCC1 [Example 110, 6-(2,6-dichlorophenyl)-2-{[3-methyl-4-(piperazin-1-yl)phenyl]amino}imidazo[1,2-a]pyrimido[5,4-e]pyrimidin-5(6H)-one] yielded a Ki of under 10 nM.
For O=c1c2cnc(Nc3ccc4c(c3)CNCC4)nc2n2ccnc2n1-c1c(Cl)cccc1Cl [Example 111, 6-(2,6-dichlorophenyl)-2-(1,2,3,4-tetrahydroisoquinolin-7-ylamino)imidazo[1,2-a]pyrimido[5,4-e]pyrimidin-5(6H)-one], the Ki was under 10 nM.
CCc1cc(Nc2ncc3c(=O)n(-c4ccccc4Cl)c4nccn4c3n2)ccc1N1CCN(C)CC1 [Example 112, 6-(2-chlorophenyl)-2-{[3-ethyl-4-(4-methylpiperazin-1-yl)phenyl]amino}imidazo[1,2-a]pyrimido[5,4-e]pyrimidin-5(6H)-one] showed a Ki of under 10 nM.
Compound CC1(C)CN(CC2CCCCC2)Cc2cc(Nc3ncc4c(=O)n(-c5ccccc5Cl)c5nccn5c4n3)ccc21 [Example 113, 6-(2-chlorophenyl)-2-{[2-(cyclohexylmethyl)-4,4-dimethyl-1,2,3,4-tetrahydroisoquinolin-7-yl]amino}imidazo[1,2-a]pyrimido[5,4-e]pyrimidin-5(6H)-one] has a Ki of under 10 nM.
With CN(C)C1Cc2ccc(Nc3ncc4c(=O)n(-c5c(Cl)cccc5Cl)c5nccn5c4n3)cc2C1 (stereo not drawn) [Example 114, 6-(2,6-dichlorophenyl)-2-{[2-(dimethylamino)-2,3-dihydro-1H-inden-5-yl]amino}imidazo[1,2-a]pyrimido[5,4-e]pyrimidin-5(6H)-one] the Ki was under 10 nM.
CC(C)N1CCN(c2ccc(Nc3ncc4c(=O)n(-c5c(Cl)cccc5Cl)c5nccn5c4n3)cc2)CC1 [Example 115, 6-(2,6-dichlorophenyl)-2-({4-[4-(propan-2-yl)piperazin-1-yl]phenyl}amino)imidazo[1,2-a]pyrimido[5,4-e]pyrimidin-5(6H)-one] gave a Ki of under 10 nM.
Compound O=c1c2cnc(Nc3ccc(N4CCN5CCCC5C4)cc3)nc2n2ccnc2n1-c1c(Cl)cccc1Cl (stereo not drawn) [Example 116, 6-(2,6-dichlorophenyl)-2-{[4-(hexahydropyrrolo[1,2-a]pyrazin-2(1H)-yl)phenyl]amino}imidazo[1,2-a]pyrimido[5,4-e]pyrimidin-5(6H)-one] has a Ki of under 10 nM.
With CCC(CC)CN1Cc2cc(Nc3ncc4c(=O)n(-c5ccccc5Cl)c5nccn5c4n3)ccc2C(C)(C)C1 [Example 117, 6-(2-chlorophenyl)-2-{[2-(2-ethylbutyl)-4,4-dimethyl-1,2,3,4-tetrahydroisoquinolin-7-yl]amino}imidazo[1,2-a]pyrimido[5,4-e]pyrimidin-5(6H)-one] the Ki was 10 to 100 nM.
In the case of CN1CCN(CCc2ccc(Nc3ncc4c(=O)n(-c5c(Cl)cccc5Cl)c5nccn5c4n3)cc2)CC1 [Example 118, 6-(2,6-dichlorophenyl)-2-({4-[2-(4-methylpiperazin-1-yl)ethyl]phenyl}amino)imidazo[1,2-a]pyrimido[5,4-e]pyrimidin-5(6H)-one], the Ki is reported as under 10 nM.
For CN(C)CCN1CCc2cc(Nc3ncc4c(=O)n(-c5c(Cl)cccc5Cl)c5nccn5c4n3)ccc21 [Example 119, 6-(2,6-dichlorophenyl)-2-({1-[2-(dimethylamino)ethyl]-2,3-dihydro-1H-indol-5-yl}amino)imidazo[1,2-a]pyrimido[5,4-e]pyrimidin-5(6H)-one], the Ki was under 10 nM.
CCc1cc(Nc2ncc3c(=O)n(-c4c(Cl)cccc4Cl)c4nccn4c3n2)ccc1N1CCN(C)CC1 [Example 120, 6-(2,6-dichlorophenyl)-2-{[3-ethyl-4-(4-methylpiperazin-1-yl)phenyl]amino}imidazo[1,2-a]pyrimido[5,4-e]pyrimidin-5(6H)-one] was tested, and the Ki was under 10 nM.
CN1CCCN(c2ccc(Nc3ncc4c(=O)n(-c5c(Cl)cccc5Cl)c5nccn5c4n3)cc2CO)CC1 [Example 121, 6-(2,6-dichlorophenyl)-2-{[3-(hydroxymethyl)-4-(4-methyl-1,4-diazepan-1-yl)phenyl]amino}imidazo[1,2-a]pyrimido[5,4-e]pyrimidin-5(6H)-one] gave a Ki of under 10 nM.
For O=c1c2cnc(Nc3ccc4c(c3)CCNC4)nc2n2ccnc2n1-c1c(Cl)cccc1Cl [Example 122, 6-(2,6-dichlorophenyl)-2-(1,2,3,4-tetrahydroisoquinolin-6-ylamino)imidazo[1,2-a]pyrimido[5,4-e]pyrimidin-5(6H)-one], the Ki was under 10 nM.
In the case of CN1CCN(c2ccc(Nc3ncc4c(=O)n(-c5c(Cl)cc(F)cc5Cl)c5nccn5c4n3)cc2)CC1 [Example 123, 6-(2,6-dichloro-4-fluorophenyl)-2-{[4-(4-methylpiperazin-1-yl)phenyl]amino}imidazo[1,2-a]pyrimido[5,4-e]pyrimidin-5(6H)-one], the Ki is reported as under 10 nM.
Work on Cc1cc(Nc2ncc3c(=O)n(-c4c(Cl)cc(F)cc4Cl)c4nccn4c3n2)ccc1N1CCCN(C)CC1 [Example 124, 6-(2,6-dichloro-4-fluorophenyl)-2-{[3-methyl-4-(4-methyl-1,4-diazepan-1-yl)phenyl]amino}imidazo[1,2-a]pyrimido[5,4-e]pyrimidin-5(6H)-one] yielded a Ki of under 10 nM.
Compound CN1Cc2cc(Nc3ncc4c(=O)n(-c5c(Cl)cc(F)cc5Cl)c5nccn5c4n3)ccc2C2(CC2)C1 [Example 125, 6-(2,6-dichloro-4-fluorophenyl)-2-[(2′-methyl-2′,3′-dihydro-1′H-spiro[cyclopropane-1,4′-isoquinolin]-7′-yl)amino]imidazo[1,2-a]pyrimido[5,4-e]pyrimidin-5(6H)-one] has a Ki of under 10 nM.
CN(C)C1Cc2ccc(Nc3ncc4c(=O)n(-c5c(Cl)cc(F)cc5Cl)c5nccn5c4n3)cc2C1 (stereo not drawn) [Example 126, 6-(2,6-dichloro-4-fluorophenyl)-2-{[2-(dimethylamino)-2,3-dihydro-1H-inden-5-yl]amino}imidazo[1,2-a]pyrimido[5,4-e]pyrimidin-5(6H)-one] showed a Ki of under 10 nM.
